± gives the standard deviation of the averaged measurements.
What was measured:
Assay in all cases: level (log10 ratio to DMSO vehicle control); higher = higher biomarker level / cell amount than vehicle control
Conditions in all cases: in DMSO
[1] = compound: FC(F)(F)C(F)(F)C(F)(F)C(F)(F)C(F)(F)C(F)(F)C(F)(F)C(F)(F)CCS [2-(Perfluorooctyl)ethanthiol]
Procedure: (§1)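 BioMAP Diversity Plus panel of 12 human primary cell co-culture systems (3C, 4H, LPS, SAg, BT, BF4T, BE3C, CASM3C, HDF3CGF, KF3CT, MyoF, Mphg). Compounds were added 1 h before stimulation and left for 24 h (MyoF 48 h; BT 72 h for soluble read-outs or 6 d for IgG). Biomarkers were read by ELISA, cytotoxicity by SRB, PBMC viability and proliferation by Alamar Blue. Each well value was divided by the mean of 8 DMSO control wells on the same plate and log10 transformed; duplicate blinded samples were tested at 4 concentrations.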

[2] = compound: O=C(O)C(F)(F)C(F)(F)OC(F)(F)F [Perfluoro-3-methoxypropanoic acid]
Procedure: as §1

[3] = compound: FC(F)(F)C(F)(C(F)(F)F)C(F)(F)C(F)(F)CC1CO1 [3-(Perfluoro-3-methylbutyl)-1,2-propenoxide]
Procedure: as §1

[4] = compound: O=C(O)C(F)(F)C(F)(F)C(F)F [4H-Perfluorobutanoic acid]
Procedure: as §1

[5] = compound: O=C(O)C(F)(F)C(F)(F)C(F)(F)C(F)(F)F [Perfluoropentanoic acid]
Procedure: as §1

[6] = compound: O=C(O)C(F)(F)C(F)(F)C(F)(F)C(F)(F)C(F)(F)C(F)(F)F [Perfluoroheptanoic acid]
Procedure: as §1

[7] = compound: OCC(F)(F)OC(F)(F)C(F)(F)OC(F)(F)CO [1H,1H,8H,8H-Perfluoro-3,6-dioxaoctane-1,8-diol]
Procedure: as §1

Test System	level (log10) ([1]; 6700 nM)	level (log10) ([1]; 20000 nM)	level (log10) ([2]; 6700 nM)	level (log10) ([2]; 20000 nM)	level (log10) ([2]; 60000 nM)	level (log10) ([3]; 6700 nM)	level (log10) ([3]; 20000 nM)	level (log10) ([4]; 6700 nM)	level (log10) ([4]; 20000 nM)	level (log10) ([4]; 60000 nM)	level (log10) ([5]; 6700 nM)	level (log10) ([5]; 20000 nM)	level (log10) ([5]; 60000 nM)	level (log10) ([6]; 6700 nM)	level (log10) ([6]; 20000 nM)	level (log10) ([6]; 60000 nM)	level (log10) ([7]; 6700 nM)	level (log10) ([7]; 20000 nM)	level (log10) ([7]; 60000 nM)
HDF3CGF:M-CSF	-0.0185 ± 0.013	-0.014 ± 0.0099	-0.005 ± 0.0085	-0.0035 ± 0.0021	-0.005 ± 0.0085	-0.0115 ± 0.018	-0.0145 ± 0.012	-0.0305 ± 0.035	-0.013 ± 0.033	-0.015 ± 0.041	0.0025 ± 0.019	-0.018 ± 0.0099	0.004 ± 0.0028	-0.009 ± 0.0099	0.0025 ± 0.015	0.01 ± 0.0014	-0.0025 ± 0.0078	-0.01 ± 0.0071	0.01 ± 0.0099
HDF3CGF:CXCL10/IP-10	-0.027 ± 0.025	-0.0495 ± 0.005	0.001 ± 0.011	0.0055 ± 0.011	-0.0135 ± 0.021	0.003 ± 0.021	-0.034 ± 0.075	-0.0145 ± 0.016	0.0025 ± 0.0021	0.0085 ± 0.012	0 ± 0.014	-0.011 ± 0.0028	0.006 ± 0.0057	-0.0295 ± 0.046	-0.015 ± 0.016	-0.0295 ± 0.0092	0.004 ± 0.0014	-0.0085 ± 0.00071	-0.011 ± 0.021
MyoF:Collagen III	-0.0105 ± 0.015	-0.0345 ± 0.018	0.004 ± 0.0099	0.0095 ± 0.0078	0.013 ± 0.0014	-0.004 ± 0.0099	-0.0275 ± 0.0078	0.022 ± 0.0099	0.0155 ± 0.0064	0.034 ± 0.014	-0.001 ± 0.0028	0.0055 ± 0.0021	-0.001 ± 0.0085	-0.013 ± 0.018	-0.011 ± 0.018	-0.0055 ± 0.0078	-0.0225 ± 0.015	0.001	-0.012 ± 0.028
CASM3C:LDLR	-0.025 ± 0.04	-0.0505 ± 0.0092	0.0105 ± 0.016	0.01 ± 0.028	0.013 ± 0.013	-0.012 ± 0.017	-0.002 ± 0.011	-0.0785 ± 0.037	-0.039 ± 0.0042	-0.0235 ± 0.026	-0.0085 ± 0.0064	-0.0045 ± 0.0078	-0.0095 ± 0.025	0.0175 ± 0.0092	0.012 ± 0.016	0.0125 ± 0.039	0.005 ± 0.0014	0.0055 ± 0.019	0.0235 ± 0.039
HDF3CGF:CD106/VCAM-1	-0.0255 ± 0.0064	-0.0555 ± 0.059	-0.008 ± 0.02	0.0165 ± 0.052	-0.0005 ± 0.036	-0.0045 ± 0.012	-0.0245 ± 0.025	-0.0385 ± 0.018	-0.0525 ± 0.022	-0.0445 ± 0.096	-0.0095 ± 0.005	0.0035 ± 0.036	0.0035 ± 0.022	-0.034 ± 0.027	-0.0135 ± 0.029	-0.021 ± 0.038	-0.0145 ± 0.011	-0.0145 ± 0.026	0.0115 ± 0.018
CASM3C:Proliferation	0.006 ± 0.0071	-0.0105 ± 0.053	-0.024 ± 0.023	-0.0095 ± 0.029	-0.0075 ± 0.025	-0.001 ± 0.047	0.0195 ± 0.071	0.0045 ± 0.011	-0.0185 ± 0.066	0.0045 ± 0.04	0.0185 ± 0.021	-0.0305 ± 0.067	0.0215 ± 0.052	-0.023 ± 0.0085	-0.008 ± 0.035	0.0045 ± 0.053	-0.0225 ± 0.0021	-0.0045 ± 0.028	0.0065 ± 0.026
lMphg:CCL3/MIP-1alpha	-0.019 ± 0.014	-0.027 ± 0.014	-0.0175 ± 0.012	-0.053 ± 0.0071	-0.0175 ± 0.019	-0.007 ± 0.0042	0.0345 ± 0.023	-0.0075 ± 0.037	0.004 ± 0.016	0.0235 ± 0.011	0.008 ± 0.059	-0.006 ± 0.055	0.006 ± 0.055	-0.0265 ± 0.013	-0.0075 ± 0.0078	0.018 ± 0.017	-0.004 ± 0.04	-0.0025 ± 0.022	0.0215 ± 0.029
lMphg:M-CSF	-0.0075 ± 0.023	0.012 ± 0.0028	-0.0075 ± 0.012	-0.025 ± 0.0071	-0.0025 ± 0.037	-0.0215 ± 0.021	-0.005 ± 0.02	-0.0115 ± 0.005	-0.015 ± 0.0028	-0.0175 ± 0.0064	-0.028 ± 0.045	0.006 ± 0.035	0.0095 ± 0.049	-0.006 ± 0.0014	-0.001 ± 0.016	0.005 ± 0.0071	-0.011 ± 0.0071	-0.004 ± 0.0085	-0.01 ± 0.0028
KF3CT:CD54/ICAM-1	-0.001 ± 0.034	-0.002 ± 0.0085	0.019 ± 0.0085	0.009 ± 0.018	0.009 ± 0.0071	0.0055 ± 0.011	-0.0105 ± 0.0064	0.005 ± 0.0028	-0.0115 ± 0.0035	-0.006 ± 0.011	0.004 ± 0.0057	0.001 ± 0.013	0.016 ± 0.028	-0.023 ± 0.0042	-0.0085 ± 0.0035	-0.0315 ± 0.00071	-0.004 ± 0.0014	0.008 ± 0.03	0.0135 ± 0.037
KF3CT:MMP-9	-0.029 ± 0.035	-0.0275 ± 0.037	-0.002 ± 0.0085	0.001 ± 0.0071	0.01 ± 0.014	-0.016 ± 0.03	-0.0265 ± 0.039	-0.024 ± 0.055	-0.0395 ± 0.012	-0.0775 ± 0.00071	-0.0225 ± 0.025	-0.0205 ± 0.018	0.012 ± 0.038	-0.0065 ± 0.0078	0.0165 ± 0.026	0.059 ± 0.025	-0.0005 ± 0.00071	0.0085 ± 0.011	0.0265 ± 0.0078
HDF3CGF:CD54/ICAM-1	-0.012 ± 0.0057	-0.0145 ± 0.021	-0.017 ± 0.0028	-0.0025 ± 0.005	-0.0055 ± 0.00071	-0.013 ± 0.021	-0.014 ± 0.041	0.009 ± 0.021	0.013 ± 0.0099	0.0035 ± 0.005	0.039 ± 0.054	0.035 ± 0.033	0.0485 ± 0.046	0.004 ± 0.02	-0.0145 ± 0.005	-0.0255 ± 0.018	0.005 ± 0.0028	-0.0165 ± 0.005	-0.01 ± 0.014

Source: the supplement of paper PMC10331698
